“And” between values parts separate entries of the source, which are not always exact repeats. Equal values may be shown once.
How the values were obtained:
[1] = Active loading of DB-67 into Ca(OAc)2 DSPC/m-PEG DSPE vesicles (Example 15); details: end of loading
[2] = after 24 hrs, novel approach (active loading)
[3] = after intravenous administration, animal data; cited from earlier work
[4] = pH 7.4
[5] = Active loading of DB-67 into liposomes, calcium acetate gradient (Example 14); details: liposomes made by active loading procedure, pH and calcium ion gradient, 40° C.

## CC[C@@]1(O)C(=O)OCc2c1cc1n(c2=O)Cc2c-1nc1ccc(O)cc1c2[Si](C)(C)C(C)(C)C [DB-67, silatecan 7-t-butyldimethylsilyl-10-hydroxycamptothecin]
[1]
  intravesicular DB-67 concentration: ~21 mM and ~10 mg/mL
[2]
  retained drug: approximately 50%
[3]
  lactone to total AUC: > 90%
[4]
  half-life for release (liposome retention): 22 ± 6 h
[5]
  suspension drug concentration (all drug being entrapped): ≤ 3 mM
